The data set in a line: Effect of gamma irradiation on paclitaxel stability in various compositions (paclitaxel assay before and after irradiation). In kind it is physicochemical. The source says: Paclitaxel either as a powder or in solution in different solvents such as DMA, PEG 400, DMA:PEG 400 (25:75% w/w) and in a polymer solution in DMA:PEG 400 (25:75% w/w) was subjected to gamma irradiation sterilization at a dose of 25 KGy and analyzed for paclitaxel content before and after irradiation.

`CC(=O)O[C@H]1C(=O)[C@@]2(C)[C@H]([C@H](OC(=O)c3ccccc3)[C@]3(O)C[C@H](OC(=O)[C@H](O)[C@@H](NC(=O)c4ccccc4)c4ccccc4)C(C)=C1C3(C)C)[C@]1(OC(C)=O)CO[C@@H]1C[C@@H]2O` [Paclitaxel]: the “Assay WRT initial, % (percentage remaining after treatment)” value (after gamma irradiation at 25 KGy) was 94.74%. For the same molecule, where the note is “paclitaxel content after gamma irradiation at 25 KGy”, the “Assay, % Post-irradiation” value turned out to be 94.74 ± 2.36%. Moreover, the “Assay, % Initial” value (paclitaxel content before gamma irradiation) is on record as 100%.

The values above are taken from patent US20070003626A1, “Sterile in-situ microcarrier forming gelled polymeric dispersions and processes to manufacture the same” (priority 2004, published 2007).
